In patent US20260373138A1, “COMPOUNDS WITH ANTIFUNGAL PROPERTIES” (priority 2023, published 2026):

Test system: A. fumigatus CEA10 reference strain
Assay: Fluconazole potentiator screen: MIC by CLSI microbroth dilution with and without fluconazole
Format: cell-based, Aspergillus fumigatus
Conditions: for MIC: Aspergillus fumigatus, read-out: MIC (ug/mL) (−) Fluc; for MIC / MIC (ug/mL) (+) Fluc: 18 h; for MIC (ug/mL) (+) Fluc: with 32 μg/ml fluconazole, normoxia, GMM, 37 °C; for potency / potentiation of fluconazole (in words): structure-activity statements, fluconazole potentiator screen

Structure (SMILES) | MIC | MIC (ug/mL) (+) Fluc | potency / potentiation of fluconazole (in words)
O=S(=O)(c1ccc(F)cc1)N1CCC(Cc2ccc(CN3CCN(CC(F)(F)F)CC3)cc2)CC1 [MBX-8438] | > 25 µg/mL | >25 µg/mL | 
c1cc(OCc2ccc(CC3CCN(Cc4ccsc4)CC3)cc2)ccn1 [MBX-7806] | > 15 µg/mL | >15 µg/mL | 
COc1ccccc1S(=O)(=O)N1CCC2(CC1)CC(CCOc1ccncc1)CCO2 (stereo not drawn) [MBX-7961] | > 89 µg/mL | >89 µg/mL | 
c1csc(CN2CCC3(CC2)CC(CCOc2ccncc2)CCO3)c1 (stereo not drawn) [MBX-7955] | > 74 µg/mL | >74 µg/mL | 
O=C(c1cccc(F)c1O)N1CCC(Cc2ccc(COc3ccncc3)cc2)CC1 [MBX-7803] | > 16 µg/mL | >16 µg/mL | 
O=S(=O)(c1ccc(F)cc1)N1CCC(Cc2ccc(CN3CCOCC3)c(F)c2)CC1 [MBX-8356] | 0.6 µg/mL | 0.09 µg/mL | 
O=C(c1ccsc1)N1CCC(Cc2ccc(COc3ccnc(O)c3)cc2)CC1 [MBX-8185] | > 20 µg/mL | >20 µg/mL | complete loss of activity
O=S(=O)(c1ccsc1)N1CC2(CC(CCOc3ccncc3)C2)C1 [MBX-8306] | 9.1 µg/mL | 4.50 µg/mL | 
CN1CCc2cc(CC3CCN(S(=O)(=O)c4ccc(F)cc4)CC3)ccc2C1 [MBX-8700] | 8.97 µg/mL | 1.26 µg/mL | 
O=C(c1ccsc1)N1CCC(Cc2ccc(COc3ccnc(Cl)c3)cc2)CC1 [MBX-8253] | > 21 µg/mL | >21 µg/mL | 
O=S(=O)(c1ccc(F)cc1)N1CCC(Cc2ccc(COc3ccncc3)cc2)C1 (stereo not drawn) [MBX-8391] | 1 µg/mL | 0.20 µg/mL | 
O=S(=O)(c1ccc(F)cc1)N1CCC(Cc2ccc(CN3CCn4cncc4C3)cc2)CC1 [MBX-8684] | 7.38 µg/mL | 1.30 µg/mL | 
O=C(c1ccsc1)N1CC[C@H](Cc2ccc(COc3ccncc3)cc2)C1 [MBX-8432] | 4.16 µg/mL | 1.51 µg/mL | 
O=C(c1ccsc1)N1CCc2cc(COc3ccncc3)ccc2C1 [MBX-8308] | 4.3 µg/mL | 1.90 µg/mL | 
N=S(=O)(c1ccc(F)cc1)N1CCC(Cc2ccc(CN3CCOCC3)cc2)CC1 (stereo not drawn) [MBX-8389] | > 43 µg/mL | >43 µg/mL | 
O=C(c1cccc(F)c1)N1CCC(Cc2ccc(COc3ccncc3)cc2)CC1 [MBX-7770] | 8.09 µg/mL | 8.09 µg/mL | 
O=C(c1c[nH]cn1)N1CCC(Cc2ccc(COc3ccncc3)cc2)CC1 [MBX-7804] | > 15 µg/mL | >15 µg/mL | not tolerated
O=S(=O)(c1ccc(F)cc1)N1CCC(Cc2ccc(CN3CCN4CCC[C@H]4C3)cc2)CC1 [MBX-8668] | 11.8 µg/mL | 1.47 µg/mL | 
O=S(=O)(c1ccc(F)cc1)N1CCC(Cc2ccc(CN3CCOCC3)cc2F)CC1 [MBX-8324] | 1.2 µg/mL | 0.17 µg/mL | 
Cc1ccc(C(=O)N2CCC(Cc3ccc(COc4ccncc4)cc3)CC2)cc1 [MBX-7707] | 1.18 µg/mL | 0.59 µg/mL | comparable activity to MBX-7591
c1cc(OCc2ccc(CC3CCNCC3)cc2)ccn1 [MBX-8147] | > 14 µg/mL | >14 µg/mL | 
O=S(=O)(c1ccc(F)cc1)N1CCC2(CC1)CC(CCOc1ccncc1)CCO2 (stereo not drawn) [MBX-7871] | 8.69 µg/mL | 1.09 µg/mL | 
COC(=O)c1ccc(C(=O)N2CCC(Cc3ccc(COc4ccncc4)cc3)CC2)cc1 [MBX-8093] | > 22 µg/mL | >20 µg/mL | 
O=S(=O)(c1ccc(C(F)(F)F)nc1)N1CCC(Cc2ccc(CN3CCOCC3)cc2)CC1 [MBX-8186] | 4.8 µg/mL | 1.90 µg/mL | maintain activity in the morpholine series
O=C(c1ccc(F)cc1)N1CCC(Cc2ccc(COc3ccncc3)cc2)CC1 [MBX-7706] | 1.01 µg/mL | 8.09 µg/mL | antagonistic effect
COc1ccc(S(=O)(=O)N2CCC3(CC2)CC(CCOc2ccncc2)CCO3)cc1 (stereo not drawn) [MBX-7953] | 5.58 µg/mL | 1.11 µg/mL | 

Structure (SMILES) | MIC | MIC (ug/mL) (+) Fluc | potency / potentiation of fluconazole (in words)
Cn1nccc1S(=O)(=O)N1CCC2(CC1)CC(CCOc1ccncc1)CCO2 (stereo not drawn) [MBX-7914] | 8.34 µg/mL | 3.31 µg/mL | 
O=S(=O)(c1ccsc1)N1CC2(CN(CCOc3ccncc3)C2)C1 [MBX-8241] | > 18 µg/mL | >18 µg/mL | 
O=S(=O)(c1cccs1)N1CCC2(CC1)CN(CCOc1ccncc1)CCO2 [MBX-8310] | 21 µg/mL | 5.20 µg/mL | 
O=S(=O)(c1ccc(C(F)(F)F)nc1)N1CCC2(CC1)CC(CCOc1ccncc1)CCO2 (stereo not drawn) [MBX-7913] | 2.41 µg/mL | 0.96 µg/mL | the most potent
O=C(c1ccncc1)N1CCC(Cc2ccc(COc3ccncc3)cc2)CC1 [MBX-7731] | 7.7 µg/mL | 7.70 µg/mL | did not result in appreciable increase in potency
O=C(c1csc(Cl)c1)N1CCN(Cc2ccc(CN3CCOCC3)cc2)CC1 [MBX-8249] | > 21 µg/mL | 21.00 µg/mL | 
COc1cccc(C(=O)N2CCC(Cc3ccc(COc4ccncc4)cc3)CC2)c1 [MBX-7771] | 11.8 µg/mL | 16.70 µg/mL | 
COc1ccc(C(=O)N2CCC(Cc3ccc(COc4ccncc4)cc3)CC2)cc1 [MBX-7728] | 8.3 µg/mL | 8.30 µg/mL | 
O=S(=O)(c1ccc(F)cc1)N1CCC(Cc2ccc(CC3CCOCC3)cc2)CC1 [MBX-8347] | > 21 µg/mL | >21 µg/mL | 
O=C(c1ccsc1)N1CCC(Cc2ccc(COc3cnc4scnc4c3)cc2)CC1 [MBX-8219] | 2.81 µg/mL | 2.81 µg/mL | 
O=C(c1ccsc1)N1CCC(Cc2ccc(Oc3ccncc3)cc2)CC1 [MBX-8025] | > 37 µg/mL | >37 µg/mL | not optimal for potentiation of fluconazole
O=C1c2ccsc2CCN1Cc1ccc(COc2ccncc2)cc1 [MBX-8243] | 8.76 µg/mL | 4.92 µg/mL | 
O=C(c1ccsc1)N1CCC(Cc2ccc(COc3ccncn3)cc2)CC1 [MBX-8529] | 9.84 µg/mL | >15 µg/mL | 
O=C(c1ccsc1)N1CCC(Cc2ccc(COc3ccncc3)cc2)C1 (stereo not drawn) [MBX-8240] | 4.73 µg/mL | 2.37 µg/mL | 
O=C(NC1CCN(Cc2ccc(COc3ccncc3)cc2)CC1)c1ccsc1 [MBX-8312] | > 20 µg/mL | >20 µg/mL | 
O=S(=O)(c1ccc(C(F)(F)F)cc1)N1CCC(Cc2ccc(CN3CCOCC3)cc2)CC1 [MBX-8224] | 1.1 µg/mL | 0.50 µg/mL | 
Nc1cc(OCc2ccc(CC3CCN(C(=O)c4ccsc4)CC3)cc2)ccn1 [MBX-8226] | 20 µg/mL | 11.00 µg/mL | 
O=S(=O)(c1cccc(F)c1)N1CCN(Cc2ccc(CN3CCOCC3)cc2)CC1 [MBX-8189] | > 21 µg/mL | >21 µg/mL | 
CN1CCN(Cc2ccc(CC3CCN(S(=O)(=O)c4ccc(F)cc4)CC3)cc2)CC1 [MBX-8436] | 4.46 µg/mL | 0.45 µg/mL | 
O=S(=O)(c1ccccc1F)N1CCC2(CC1)CC(CCOc1ccncc1)CCO2 (stereo not drawn) [MBX-7869] | > 17 µg/mL | 3.07 µg/mL | 
O=C(c1ccsc1)N1CCC(Cc2ccc(COc3ccc4scnc4c3)cc2)CC1 [MBX-8086] | > 19 µg/mL | >19 µg/mL | 
CC1CN(Cc2ccc(CC3CCN(S(=O)(=O)c4cccc(F)c4)CC3)cc2)CC(C)O1 (stereo not drawn) [MBX-8190] | > 23 µg/mL | >23 µg/mL | not tolerated
CC(C1CCN(Cc2ccc(CN3CCOCC3)cc2)CC1)S(=O)(=O)c1ccc(F)cc1 (stereo not drawn) [MBX-8359] | > 23 µg/mL | >23 µg/mL | 
O=S(=O)(c1cccs1)N1CCC2(CC1)CC(CCO)CCO2 (stereo not drawn) [MBX-8248] | > 17 µg/mL | >17 µg/mL | 
O=C1c2ccsc2CCN1Cc1ccc(CCOc2ccncc2)cc1 [MBX-8354] | 9 µg/mL | 14.00 µg/mL | 
O=S(=O)(C1CC1)N1CCC2(CC1)CC(CCOc1ccncc1)CCO2 (stereo not drawn) [MBX-7911] | 76.1 µg/mL | 38.10 µg/mL | complete loss of activity
